Laboratory results taken from patent publication US7153858B2, “Arylpiperazinyl compounds” (Epix Delaware, Inc., priority 2003, dated 2006).
Entries after “also recorded” stand apart in the source; their conditions may differ. Where a name gives a salt, the structure may show the parent alone.

Columns and labels:
Assay type in all cases: in vivo
[1] = system: Coloboma mice; test: Open Field, hyperlocomotor activity of Coloboma mutant mice (ADHD model); conditions: vs vehicle
From the text: The mice used in the current study are the offspring of breeding pairs (C3H/HeSnj-Cm) originally purchased from Jackson Laboratory, Bar Harbor, Me. Of the 48 mice tested, 22 were male and 26 were female, at age between 12–20 weeks old. These animals were weaned at 21 days age and were housed in 2 to 4 littermates per cage in our animal facility where standard animal husbandry was maintained. The colony room was kept under 12-hour light/12-hour dark cycles with the lights on at 7:00 a.m. Temperature was maintained between 20 and 23° C. with a relative humidity maintained between 30% and 70%. Animals received food chow and water provided ad libitum.
All compounds were dissolved in sterile injectable water, which served as the vehicle control. All solutions were prepared on the day of the experiments. Compound A as well as its vehicle (water) was given to animals orally (PO) in a volume of 10 ml/kg body weight; the reference compound was given to animals intraperitoneally (IP). […]
The study was conducted over two consecutive days with animals tested between 10:00 a.m. and 5:00 p.m. on each day. […] The results were recorded automatically and processed by microcomputer.
The open field activity monitor system (Med Associates, Inc.) measured general motor activity. […]
All data were analyzed by comparing the groups treated with the test substance to the vehicle control or reference treated groups. […]

[2] = system: C57B16/J mice; test: Elevated Plus Maze (EPM); conditions: for Closed Arm Entries / Total Entries / Open Arm Time / Proportion Open Arm Entries: vs vehicle
From the text: (§1) Young adult male C57B16/J mice from Jackson Laboratory, Bar Harbor, Me. were used in the Elevated Plus Maze; 129 svev mice from Taconic, Germantown, N.Y. were used in the Stress-induced Hyperthermia, Open Field, and the Tail Suspension tests, and DBA/2J mice from Jackson Laboratory, Bar Harbor, Me. were used in the Forced Swim test. All mice were received at the age of 6 weeks and were assigned unique identification numbers. Animals were housed 4 per cage in polycarbonate cages with filter tops, cagemate identification maintained by tail marks. Animals were acclimated for 7 days and given food and water ad libitum. Mice were examined prior to initiation of the study at 8 weeks of age to assure adequate health and suitability. During the course of the study, 12-hour light/12-hour dark cycles were maintained with the light on at 7:00 a.m. The room temperature was maintained between 20 and 23° C. with a relative humidity maintained between 30% and 70%. Chow and water were provided ad libitum.
(§2) In each test, animals were randomly assigned across treatment groups and balanced by cage number. Ten animals were used in each treatment group. Mice for the Open Field and Stress-induced hyperthermia studies were handled once daily for 2 consecutive days prior to the testing. Mice assigned to the Elevated plus maze experiment were not handled to increase the stress level at the time of the testing.
(§3) All compounds were dissolved in sterile injectable water, which served as the vehicle control. All solutions were prepared on the day of the experiments. […] In all tests except for the tail suspension (TS) test, drugs were administered acutely; in the TS test, Compound A was administered once daily for 3 days (test day inclusive) prior to testing. Thirty minutes pretreatment time was used in all tests except for SIH in which case compounds were given to the animals one hr before the test.
The elevated plus maze is a test commonly used to assess anxiety in rodents. The maze consists of two closed arms (l×w×h: 15 cm×6 cm×30 cm) and two open arms (6 cm w×30 cm l) forming a cross, with a square center platform (6×6 cm). Rodents naturally fear open spaces and tend to spend more time in the closed arms. Anxiolytics will attenuate this fear of open spaces and will increase the number of time spent in open arms. All visible surfaces are made of a black acrylic. Each arm of the maze is placed on a support column 50 cm above the floor. The light intensity was ˜100 lux above the open arms and ˜70 lux above the closed arms. Animals were brought to the experimental room at least 1 hr before the test in the home cage (food and water available). Mice were placed in the center of the elevated plus maze facing an open arm, tested once, one at a time for a 5 min test. The time in the open/closed arms and the number of entries in the open/closed arms were recorded via video camera and used as a measure of anxiety. Mice were returned to the home cage after testing and then to the colony room.
(§4) All data were analyzed by comparing the groups treated with the test substance to the vehicle control or reference treated groups. Statistical analysis was performed by ANOVA followed by Fisher's post-hoc test where appropriate. […] Data are represented as the means and standard error to the mean (s.e.m).

[3] = system: 129 svev mice; test: Stress-Induced Hyperthermia (SIH); conditions: 1 hr before test
From the text: as §1, §2, §3
Mice have a natural hyperthermic response to stress, which has been proposed as a measure of stress-induced anxiety (Olivier, Zethof, Ronken & van der Heyden, European Journal of Pharmacology 342(2–3): 177–82, 1998). Anxiolytics are known to decrease this hyperthermic response to stress. This test involves two measures of rectal temperature repeated in the same animal within a 10 min period. On the day prior to testing, animals were brought to the experimental room 1 hr prior to scheduled lights out and singly housed overnight with food and water ad libitum. On the morning of the experiment, animals were first injected with treatment compound or vehicle. One hr post treatment, the animal was removed from the holding cage and held in a supine position and had rectal temperature measured by using a rectal probe attached to a PhysiTemp thermometer (Fisher Scientific). For each animal tested, the rectal probe was cleaned with an alcohol pad and lubricated with sterile K-Y jelly and slowly inserted into the animal's rectum at a length of approximately 3–5 mm. The probe remained within the animal's rectum for approximately 5 sec or until body temperature reached stability, and the baseline rectal temperature (T1) was recorded. The animal was immediately placed back to the holding cage and after a 10-min interval a second rectal temperature (T2) was taken using the same procedure as T1. The animal was then returned to the home cage and at the completion of the experiment returned to the colony room.
as §4

[4] = system: 129 svev mice; test: Open Field (OF), general motor activity; conditions: 40 min session
From the text: as §1, §2, §3
The open field activity monitor system (Med Associates, Inc.) measured general motor activity. The test was performed under normal lighting conditions (400 lux). Mice were brought into the experimental room and allowed at least 1 hr of acclimation. Thirty min after treatment, each mouse was placed into the testing enclosure (l×w×h: 27 cm×27 cm×20 cm) with an infrared beam array that automatically monitors the animal's activity. Eight animals of balanced treatment were tested at one time. The test session lasted 40 min and animals were returned to the home cages at the end of the session. The critical measures of this test includes locomotion (total distance traveled), rearing (vertical activity), number of center entries and percent time spent in the center area of the OF arena.
as §4

[5] = system: 129 svev mice (tail suspension), DBA/2J mice (forced swim); test: Tail suspension and forced swim test; conditions: PO; tail suspension: once daily for 3 days
From the text: as §1
as §3, with “Thirty minutes pretreatment time was used in all tests except for SIH in which case compounds were given to the animals one hr before the test.” left out

[6] = reference buspirone 3, 10 and 20 mg/kg PO
[7] = reference buspirone 20 mg/kg IP
[8] = reference buspirone 20 mg/kg IP, listed as buspirone

`C[C@H](N)Cc1ccccc1` [d-Amphetamine, reference compound] was tested. Which “locomotor activity (Distance Traveled)” value ([1]; 4 mg/kg IP, 15 min before the test) did it give?
Its value is “significantly decreased”.

What does the source list for `O=C1CC2(CCCC2)CC(=O)N1CCCCN1CCN(c2ncccn2)CC1` [Buspirone, reference compound]?
Closed Arm Entries ([2]; 20 mg/kg PO): significantly decreased; Total Entries ([2]; 20 mg/kg PO): significant decrease; Closed Arm Entries ([2]; 20 mg/kg PO, listed as BUS): decrease (BUS, 20); Total Entries ([2]; 20 mg/kg PO, listed as BUS): decrease (BUS, 20); anxiolytic-like effect in the EPM [2, 6]: failed to produce a significant anxiolytic-like effect; Open Arm Time [2, 6]: no effect; Basal Rectal Temperature [3, 7]: decrease; Temperature Change (stress-induced hyperthermia) [3, 7]: decrease; Basal Rectal Temperature [3, 8]: significantly decreased; Temperature Change (stress-induced hyperthermia) [3, 8]: significantly decreased; Frequency of Zone Crosses ([4]; reference buspirone PO): no change; Percent Distance in Center ([4]; reference buspirone PO): no change; Percent Time in Center ([4]; reference buspirone PO): no change; Total Distance (Horizontal) ([4]; reference buspirone PO): no change; Vertical Activity (Rearing) ([4]; reference buspirone PO): decreased the number of rears; also recorded: decrease

`CC(=O)Nc1cccc(N2CCN(CCCCNS(=O)(=O)CC3CCCCC3)CC2)c1` [Compound A, N-{3-[4-(4-Cyclohexylmethanesulfonylamino-butyl)-piperazin-1-yl]-phenyl}-acetamide HCl] was tested. Which “Closed Arm Entries” value ([2]; 3 mg/kg PO) did it give?
Its value is “no change”.

And the “Total Entries” value ([2]; 3 mg/kg PO)?
The value was “no change”.

And the “Open Arm Time” value ([2]; 3 mg/kg PO, HCl)?
The value was “significant anxiolytic-like effect; also recorded: increase”.

What about the “Proportion Open Arm Entries” value ([2]; 3 mg/kg PO, HCl) of the same compound?
The value was “significant anxiolytic-like effect; also recorded: increase”.

What about the “Closed Arm Entries” value ([2]; 10 mg/kg PO) of the same compound?
Its value is “no change”.

What about the “Total Entries” value ([2]; 10 mg/kg PO) of the same compound?
The value was “no change”.

And the “Open Arm Time” value ([2]; 10 mg/kg PO, HCl)?
The value was “did not reach statistical significance; also recorded: no change”.

What about the “Proportion Open Arm Entries” value ([2]; 10 mg/kg PO, HCl) of the same compound?
Its value is “did not reach statistical significance; also recorded: no change”.

And the “Closed Arm Entries” value ([2]; 20 mg/kg PO)?
The value was “no change”.

And the “Total Entries” value ([2]; 20 mg/kg PO)?
Its value is “no change”.

And the “Open Arm Time” value ([2]; 20 mg/kg PO, HCl)?
Its value is “did not reach statistical significance; also recorded: no change”.

And the “Proportion Open Arm Entries” value ([2]; 20 mg/kg PO, HCl)?
Its value is “did not reach statistical significance; also recorded: no change”.

What about the “Basal Rectal Temperature” value ([3]; 1 mg/kg PO, HCl) of the same compound?
Its value is “did not show significant effects; also recorded: no change”.

And the “Temperature Change (stress-induced hyperthermia)” value (shortened to “Temperature Change”) ([3]; 1 mg/kg PO, HCl)?
The value was “did not show significant effects; also recorded: no change”.

What about the “Basal Rectal Temperature” value ([3]; 3 mg/kg PO, HCl) of the same compound?
The value was “did not show significant effects; also recorded: no change”.

What about the “Temperature Change” value ([3]; 3 mg/kg PO, HCl) of the same compound?
Its value is “did not show significant effects; also recorded: no change”.

And the “Basal Rectal Temperature” value ([3]; 20 mg/kg PO, HCl)?
Its value is “significant decrease”.

What about the “Temperature Change” value ([3]; 20 mg/kg PO, HCl) of the same compound?
Its value is “significant decrease”.

What about the “Frequency of Zone Crosses” value ([4]; 1 mg/kg PO) of the same compound?
The value was “No change”.

And the “Percent Distance in Center” value ([4]; 1 mg/kg PO)?
The value was “No change”.

What about the “Percent Time in Center” value ([4]; 1 mg/kg PO) of the same compound?
Its value is “No change”.

What about the “Total Distance (Horizontal)” value ([4]; 1 mg/kg PO) of the same compound?
The value was “No change”.

And the “Vertical Activity (Rearing)” value ([4]; 1 mg/kg PO)?
The value was “No change”.

And the “Frequency of Zone Crosses” value ([4]; 3 mg/kg PO)?
The value was “no change”.

What about the “Percent Distance in Center” value ([4]; 3 mg/kg PO) of the same compound?
Its value is “no change”.

What about the “Percent Time in Center” value ([4]; 3 mg/kg PO) of the same compound?
The value was “no change”.

What about the “Total Distance (Horizontal)” value ([4]; 3 mg/kg PO) of the same compound?
The value was “no change”.

And the “Vertical Activity (Rearing)” value ([4]; 3 mg/kg PO)?
The value was “no change”.

And the “Frequency of Zone Crosses” value ([4]; 20 mg/kg PO)?
Its value is “no change”.

And the “Percent Distance in Center” value ([4]; 20 mg/kg PO)?
Its value is “no change”.

And the “Percent Time in Center” value ([4]; 20 mg/kg PO)?
Its value is “no change”.

What about the “Total Distance (Horizontal)” value ([4]; 20 mg/kg PO) of the same compound?
The value was “no change”.

And the “Vertical Activity (Rearing)” value ([4]; 20 mg/kg PO)?
Its value is “no change”.

What about the “hyperlocomotor activity (Distance Traveled)” value ([1]; doses of 1 and 20 mg/kg PO, 30 min pretreatment) of the same compound?
Its value is “decreased the hyperlocomotor activity”.

What about the antidepressive properties [5] of the same compound?
Its antidepressive properties is “did not appear to have antidepressive properties”.
